Experimental data from ChEMBL document CHEMBL4825706, “Synthesis and biological evaluation of selenogefitinib for reducing bleomycin-induced pulmonary fibrosis” (Bioorg Med Chem Lett, 2021).
The source made the active and inactive calls. No cut-off for these calls is given here.

Columns and labels:
Mus musculus [1] = assay: Antifibrotic activity in C57BL mouse model of BLM-induced lung fibrosis assessed as TNF-alpha level in blood at 60 mg/kg measured after 14 days by flow cytometry (reference value: 3.12 +/- 0.11 pg/ml); assay type: functional; details: time 14 day
Mus musculus [2] = assay: Antifibrotic activity in C57BL mouse model of BLM-induced lung fibrosis assessed as MDA content at 60 mg/kg measured after 14 days (reference value: 9.93 +/- 1.41 nmol/ml); assay type: functional; details: time 14 day
Mus musculus [3] = assay: Antifibrotic activity in C57BL mouse model of BLM-induced lung fibrosis assessed as reduction in collagen deposition in the lung at 60 mg/kg by masson staining method; assay type: functional, organism-based
Mus musculus [4] = assay: Antifibrotic activity in C57BL mouse model of BLM-induced lung fibrosis assessed as IL-6 level in blood at 60 mg/kg measured after 14 days by flow cytometry (reference value: 2.36 +/- 0.16 pg/ml); assay type: functional; details: time 14 day
Mus musculus [5] = assay: Antifibrotic activity in C57BL mouse model of BLM-induced lung fibrosis assessed as reduction in alveolar wall thickness by measuring lung coefficient at 60 mg/kg by hematoxylin and eosin staining based assay (reference value: 12.89 +/- 2.52 g); assay type: functional
Mus musculus [6] = assay: Antifibrotic activity in C57BL mouse model of BLM-induced lung fibrosis assessed as HYP level at 60 mg/kg (reference value: 5.31 +/- 0.79 ug/mg); assay type: functional
Mus musculus [7] = assay: Antifibrotic activity in C57BL mouse model of BLM-induced lung fibrosis assessed as IL-4 level in blood at 60 mg/kg measured after 14 days by flow cytometry (reference value: 2.72 +/- 0.14 pg/ml); assay type: functional; details: time 14 day
Mus musculus [8] = assay: Antifibrotic activity in C57BL mouse model of BLM-induced lung fibrosis assessed as reduction in infiltration of inflammatory cells at 60 mg/kg by hematoxylin and eosin staining based assay; assay type: functional, organism-based
L02 = assay: Cytotoxicity against human L02 cells assessed as inhibition of cell growth measured by CCK8 assay; assay type: functional, cell-based
[9] = target: Epidermal growth factor receptor (Homo sapiens, UniProt P00533); assay: Inhibition of EGFR (unknown origin) by ADP-Glo kinase assay
[10] = Cytotoxicity against human HBE cells assessed as inhibition of cell growth measured by CCK8 assay; assay type: ADME, cell-based

Chain of Epidermal growth factor receptor (P00533 whole entry): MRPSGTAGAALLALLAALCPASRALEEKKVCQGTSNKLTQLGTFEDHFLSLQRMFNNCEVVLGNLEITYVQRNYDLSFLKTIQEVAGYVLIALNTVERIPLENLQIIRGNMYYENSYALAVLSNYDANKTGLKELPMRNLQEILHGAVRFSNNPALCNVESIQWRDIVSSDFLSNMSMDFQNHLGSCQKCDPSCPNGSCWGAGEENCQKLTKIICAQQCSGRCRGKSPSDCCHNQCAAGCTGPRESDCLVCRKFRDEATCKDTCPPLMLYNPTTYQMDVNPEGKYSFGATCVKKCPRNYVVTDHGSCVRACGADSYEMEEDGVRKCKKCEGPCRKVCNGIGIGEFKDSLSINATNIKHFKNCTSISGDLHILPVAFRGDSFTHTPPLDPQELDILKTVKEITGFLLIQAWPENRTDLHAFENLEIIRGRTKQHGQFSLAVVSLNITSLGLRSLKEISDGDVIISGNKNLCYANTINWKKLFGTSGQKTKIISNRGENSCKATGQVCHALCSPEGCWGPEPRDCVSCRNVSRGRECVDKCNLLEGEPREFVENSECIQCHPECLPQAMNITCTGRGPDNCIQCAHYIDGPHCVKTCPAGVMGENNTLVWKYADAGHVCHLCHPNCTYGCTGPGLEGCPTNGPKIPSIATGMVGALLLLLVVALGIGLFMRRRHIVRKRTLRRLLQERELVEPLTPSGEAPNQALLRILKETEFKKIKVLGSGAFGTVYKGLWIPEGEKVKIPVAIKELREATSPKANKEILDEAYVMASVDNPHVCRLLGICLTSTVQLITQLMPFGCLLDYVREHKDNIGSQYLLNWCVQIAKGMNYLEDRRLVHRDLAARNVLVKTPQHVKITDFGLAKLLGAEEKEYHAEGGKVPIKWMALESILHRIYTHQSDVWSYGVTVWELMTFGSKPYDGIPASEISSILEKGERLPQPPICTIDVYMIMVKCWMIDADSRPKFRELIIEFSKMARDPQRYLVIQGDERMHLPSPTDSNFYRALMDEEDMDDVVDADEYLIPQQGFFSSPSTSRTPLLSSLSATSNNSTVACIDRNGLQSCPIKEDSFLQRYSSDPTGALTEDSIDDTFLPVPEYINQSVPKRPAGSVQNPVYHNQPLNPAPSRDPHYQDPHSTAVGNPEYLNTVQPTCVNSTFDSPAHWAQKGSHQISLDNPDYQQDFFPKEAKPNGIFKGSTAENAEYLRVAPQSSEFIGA

For COc1cc2ncnc(Nc3ccc(F)c(Cl)c3)c2cc1OCCCN1CCOCC1 [GEFITINIB], the Activity (Mus musculus [1]) was 2.39 pg/mL, the Activity (Mus musculus [2]) was 8.92 nmol/mL and the Activity (Mus musculus [3]) was “Active”. It also gave an Activity (Mus musculus [4]) of 1.77 pg/mL, an Activity (Mus musculus [5]) of 9.7 g and an Activity (Mus musculus [6]) of 3.39 µg/mg. For the same compound, the Activity (Mus musculus [7]) was 2.17 pg/mL.

In the case of COc1cc2ncnc(Nc3ccc(F)c(Cl)c3)c2cc1OCCCN1CC[Se]CC1, the Activity (Mus musculus [1]) is reported as 1.56 pg/mL, the Activity (Mus musculus [2]) is reported as 6.13 nmol/mL and the Activity (Mus musculus [3]) is reported as “Active”. The Activity (Mus musculus [8]) was “Active”, the Activity (Mus musculus [4]) was 1 pg/mL and the Activity (Mus musculus [5]) was 7.56 g. The IC50 (L02) was 13.8 µM, the Activity (Mus musculus [6]) was 3.01 µg/mg and the IC50 [9] was 0.0253 µM. It also gave an IC50 [10] of 21.8 µM and an Activity (Mus musculus [7]) of 1.72 pg/mL.
